The subject of series [1] is Wistar strain of male rats. In words: Anti-pyretic activity (dry-yeast induced fever). The format is in vivo, rat (Wistar strain. To be noted: oral, up to 4 hours after administration, dose not given. The procedure:
(§1) Next, several tests for determining the pharmacological properties, in that acute toxicity, anti-pyretic activity, analgesic activity and anti-inflammatory activity of the present 1,1,3,5-substituted biuret compounds of the formula (1) were conducted and the test results are shown in Table (2). In the tests, each compounds to be tested was used as a suspension in 0.25% carboxymethylcellulose solution. Methods for testing are explained as follows:
According to the method reported by Tanabe [Folia Pharmacologia Japonica, Vol. 73, pp. 803 (1977)], the Wistar strain of male rats (150-180 g body weight) were used as test animals. The rats were fasted overnight, and 1 ml/100 g (body weight) of 10% dry-yeast suspension were subcutaneously injected on the back of the rats. Five hours after the injection, the test compound was administered orally, then the body temperature of the rat was measured at time sequences. Anti-pyretic activity of the test compound was determined as the FI (febril index) by integrating pyrogenetic curve up to 4 hours after the administration of the test compound with time, and indicated as inhibitory ratio (%) shown by the following formula, [formula]

Series [2] in a line: Acute toxicity (oral, 7 days observation). The conditions noted are these: mouse, in vivo, read-out: Acute toxicity, 50% lethal dose, LD50 (values with Δ marks). It is filed as in vivo. On the procedure:
as §1
The ddy strain of male mice (body weight, 20-25 g) were used as test animals. The mice were fasted overnight and the compound to be tested was administered orally. […] The lethal dose (mg/kg, body weight) of the test compound was determined in connection with the death number of mice/the number of mice tested. In Table 2, the values indicated with Δ marks are 50% lethal dose, LD50 (mg/kg, body weight).

Series [3] has as its system Wistar strain of male rats. Briefly: Anti-inflammatory activity, acute carrageenin-induced inflammatory test. The format is in vivo, rat (Wistar strain. The conditions noted are these: Rattus norvegicus. The procedure:
as §1
According to the method of acute carrageenin-induced inflammatory test [Folia Pharmacologia Japonica, Vol. 56, pp. 575 (1960)], the Wistar strain of male rats (body weight, 150-180 g) were used as test animals. The rats were fasted overnight, 100 mg/kg body weight of the test compound was administered orally, then 1 hour after the administration, 0.1 ml of 1% carrageenin solution, as the inflammation inducing agent, was injected subcutaneously to the hindpaw of the rat and the volume of the hindpaw was measured at time sequences. Anti-inflammatory activity of the test compound was calculated as inflammation inhibitory ratio (%) at 3 hours after the injection of the inflammation inducing agent.

For series [4], the system named is ddy strain of male mice. In words: Analgesic activity, acetic acid-induced stretching method. The format is in vivo, mouse (ddy strain. To be noted: Mus musculus, po; for ED50: read-out: Analgesic activity, acetic acid-induced stretching method, 50% effective dose, ED50 (values with Δ marks). The procedure:
as §1
According to the method reported by Koster et al., [Fed. Proc., Vol. 18, pp. 412 (1959)], the ddy strain of male mice (body weight, 20-25 g) were used as test animals. The mice were fasted overnight, 100 mg/kg body weight of the test compound was administered orally, then 1 hour after the administration, 0.2 ml of 0.7% acetic acid solution was injected intraperitoneally. The acetic acid-induced stretching symptom of mouse was observed. Analgesic activity of the test compound was calculated as the inhibitory ratio (%). In Table 2, the values in Parentheses show the data obtained from the test by using the dosage other than 100 mg/kg body weight. Further, the values indicated with Δ marks show 50% effective dose, ED50 (mg/kg body weight).

In series [5] the test system is ddy strain of male mice. In words: Analgesic activity, Haffner method. It is filed as in vivo, mouse (ddy strain. The conditions noted are these: with threshold morphine hydrochloride s.c.; for Analgesic activity, Haffner method, 50% effective dose, ED50 (values with Δ marks): oral, range in parentheses. The procedure: as §1
According to the modified method reported by Fujimura et al., [Bulletin of the Institute for Chemical Research, Kyoto University, No. 25, pp. 36 (1951)], the ddy strain of male mice (body weight, 20-25 g) were used as test animals. The mice were fasted overnight, 100 mg/kg body weight of the test compound was administered orally, then 45 minutes after the administration, the threshold amount (1.5-2.5 mg/kg body weight) of morphine hydrochloride was injected subcutaneously. Then 1-hour pain reaction of the mouse caused by a clamp was observed. Analgesic activity of the test compound was calculated as the inhibitory ratio (%). In Table 2, the values in parentheses show the data obtained from the test by using the dosage other than 100 mg/kg body weight. Further, the values indicated with Δ marks show 50% effective dose, ED50 (mg/kg body weight).

Setting [6] is: po, 3 h, read-out: Anti-inflammatory activity, inflammation inhibitory ratio.
[7] abbreviates: 100 mg/kg oral, rats, 3 hours after carrageenin, read-out: Anti-inflammatory activity, inflammation inhibitory ratio.
The mark [8] stands for this setting: read-out: Analgesic activity, acetic acid-induced stretching method, inhibitory ratio.
The mark [9] stands for this setting: po, 2 h, read-out: Anti-inflammatory activity, inflammation inhibitory ratio (2 hours value).

This is an account of results in US4293713A, “Novel 1,1,3,5-substituted biuret compound and a pharmaceutical composition containing the same” (priority 1979, dated 1981).

Where two headings read alike, the source gives them in different places.

Take `CN(C)C(=O)N(C)C(=O)Nc1ccccc1` [Compound No. 1, 1,1,3-Trimethyl-5-phenylbiuret]: the “Anti-pyretic activity, inhibitory ratio of febril index (FI)” value in series [1] was 80%. Further, the LD50 at 168 h in series [2] (oral, mice, 7 days) was 1710 mg/kg. In addition, the inhibition in vivo at 100 mg/kg in series [3] (setting [6]) was found to be 59%. Besides, in the series with ddy strain of male mice [4], the ED50 was found to be 75 mg/kg. Also, in the series on ddy strain of male mice [5], the “Analgesic activity, Haffner method, 50% effective dose, ED50 (values with Δ marks)” value is on record as 68(52-88) mg/kg.

For `CN(C)C(=O)N(C)C(=O)Nc1ccc(F)cc1` [Compound No. 3, 1,1,3-Trimethyl-5-(4-fluorophenyl)biuret], in series [1], the “Anti-pyretic activity, inhibitory ratio of febril index (FI)” value stood at 61%. The LD50 at 168 h in series [2] (oral, mice, 7 days) was determined as 930 mg/kg. Further, the inhibition in vivo at 100 mg/kg is 37% in series [3] (setting [7]) and 87.5% in the series with ddy strain of male mice [4] (setting [8]). The “Analgesic activity, Haffner method, inhibitory ratio” value in the series on ddy strain of male mice [5] (100 mg/kg oral) is reported as 62.5%.

In the case of `CN(C)C(=O)N(C)C(=O)Nc1ccc(Cl)cc1` [Compound No. 7, 1,1,3-trimethyl-5-p-chlorophenylbiuret], the “Anti-pyretic activity, inhibitory ratio of febril index (FI)” value in series [1] is 84%. Further, the LD50 at 168 h in series [2] (oral, mice, 7 days) was found to be 1200 mg/kg. Further, in series [3] (setting [6]), the inhibition in vivo at 100 mg/kg amounted to 47%. Moreover, the ED50 with ddy strain of male mice [4] came to 12 mg/kg. The “Analgesic activity, Haffner method, 50% effective dose, ED50 (values with Δ marks)” value with ddy strain of male mice [5] is 20(11-35) mg/kg.

Regarding `CN(C)C(=O)N(C)C(=O)Nc1ccc(Br)cc1` [Compound No. 11, 1,1,3-Trimethyl-5-(4-bromophenyl)biuret], in series [1], the “Anti-pyretic activity, inhibitory ratio of febril index (FI)” value is listed as 103%. Also, the LD50 at 168 h in series [2] (oral, mice, 7 days) turned out to be 1350 mg/kg. Moreover, the inhibition in vivo at 100 mg/kg in series [3] (setting [9]) is 48%. Moreover, the ED50 in the series on ddy strain of male mice [4] is 60 mg/kg. Also, in the series on ddy strain of male mice [5], the “Analgesic activity, Haffner method, 50% effective dose, ED50 (values with Δ marks)” value is recorded as 74(49-113) mg/kg.

In the case of `COc1ccc(NC(=O)N(C)C(=O)N(C)C)cc1` [Compound No. 17, 1,1,3-Trimethyl-5-(4-methoxyphenyl)biuret], the “Anti-pyretic activity, inhibitory ratio of febril index (FI)” value in series [1] was found to be 75%. The LD50 at 168 h in series [2] (oral, mice, 7 days) turned out to be 1800 mg/kg. The inhibition in vivo at 100 mg/kg in series [3] (setting [6]) came to 33%. Further, the ED50 with ddy strain of male mice [4] is 39 mg/kg. The “Analgesic activity, Haffner method, 50% effective dose, ED50 (values with Δ marks)” value in the series with ddy strain of male mice [5] lay in the range of 42 to 153 mg/kg.

In the case of `CN(C)C(=O)N(C)C(=O)Nc1cccc(Cl)c1` [compound 6, 1,1,3-Trimethyl-5-(3-chlorophenyl)biuret], in series [1], the “Anti-pyretic activity, inhibitory ratio of febril index (FI)” value is on record as 43%. The LD50 at 168 h in series [2] (oral, mice, 7 days) came to 1480 mg/kg. Further, the inhibition in vivo at 100 mg/kg in series [3] (setting [9]) worked out at 30%; with ddy strain of male mice [4] (setting [8]), 62.5%. Also, the “Analgesic activity, Haffner method, inhibitory ratio” value with ddy strain of male mice [5] (200 mg/kg oral) was 75%.

On to `CN(C)C(=O)N(C)C(=O)Nc1c(Cl)cccc1Cl` [compound 9, 1,1,3-Trimethyl-5-(2,6-dichlorophenyl)biuret], for which the “Anti-pyretic activity, inhibitory ratio of febril index (FI)” value in series [1] came out at 29%. The LD50 at 168 h in series [2] (oral, mice, 7 days) worked out at 1100 mg/kg. In addition, the results for the inhibition in vivo at 100 mg/kg (in series [3] (setting [7]); in the series with ddy strain of male mice [4] (setting [8])) were 25% and 50%, respectively. In addition, in the series with ddy strain of male mice [5] (100 mg/kg oral), the “Analgesic activity, Haffner method, inhibitory ratio” value came out at 50%.

As for `Cc1ccccc1NC(=O)N(C)C(=O)N(C)C` [compound 20, 1,1,3-Trimethyl-5-(2-methylphenyl)biuret], the “Anti-pyretic activity, inhibitory ratio of febril index (FI)” value in series [1] was 41%. Besides, the LD50 at 168 h in series [2] (oral, mice, 7 days) is 1000 mg/kg. The results for the inhibition in vivo at 100 mg/kg (in series [3] (setting [6]); in the series with ddy strain of male mice [4] (setting [8])) were 29% and 37.5%, respectively. For the same compound, the “Analgesic activity, Haffner method, inhibitory ratio” value in the series on ddy strain of male mice [5] (100 mg/kg oral) was found to be 50%.

Regarding `Cc1cccc(C)c1NC(=O)N(C)C(=O)N(C)C` [compound 24, 1,1,3-Trimethyl-5-(2,6-dimethylphenyl)biuret], the “Anti-pyretic activity, inhibitory ratio of febril index (FI)” value in series [1] was found to be 69%. Also, in series [2] (oral, mice, 7 days), the LD50 at 168 h turned out to be 595 mg/kg. Also, the inhibition in vivo at 100 mg/kg with ddy strain of male mice [4] (setting [8]) turned out to be 75%. Also, the “Analgesic activity, Haffner method, inhibitory ratio” value in the series on ddy strain of male mice [5] (100 mg/kg oral) was 37.5%.

As for `CN(C)C(=O)N(C)C(=O)NC1CCCCC1` [compound 29, 1,1,3-Trimethyl-5-cychlohexylbiuret], in series [2] (po), the LD50 at 168 h stood at 1450 mg/kg. Moreover, the inhibition in vivo at 100 mg/kg in series [3] (100 mg/kg oral, rats, 2 hours value, read-out: Anti-inflammatory activity, inflammation inhibitory ratio (2 hours value)) amounted to 24%. In addition, the inhibition in vivo at 200 mg/kg with ddy strain of male mice [4] (setting [8]) was determined as 87.5%. Besides, the “Analgesic activity, Haffner method, inhibitory ratio” value in the series with ddy strain of male mice [5] (100 mg/kg oral) turned out to be 25%.

For `CCN(C)C(=O)N(C)C(=O)Nc1ccccc1` [compound 33, 1-Ethyl-1,3-dimethyl-5-phenylbiuret], the “Anti-pyretic activity, inhibitory ratio of febril index (FI)” value in series [1] came to 49%. The LD50 at 168 h in series [2] (oral, mice, 7 days) was found to be 1290 mg/kg. In addition, the inhibition in vivo at 100 mg/kg in series [3] (setting [7]) is 34%. Moreover, in the series with ddy strain of male mice [4] (setting [8]), the inhibition in vivo at 80 mg/kg was determined as 50%.
